Measurements published in ChEMBL document CHEMBL3882724 (2013).

How the values were obtained:
[1] = target: T1, Steroid 17-alpha-hydroxylase/17,20 lyase (Homo sapiens, UniProt P05093); experiment: Inhibition of CYP17 in human testicular microsomes using 17alpha-hydroxypregnenolone as substrate assessed as decrease in DHEA levels after 90 mins by ELISA; set-up: species or system Testis
T1 sequence (P05093 whole entry): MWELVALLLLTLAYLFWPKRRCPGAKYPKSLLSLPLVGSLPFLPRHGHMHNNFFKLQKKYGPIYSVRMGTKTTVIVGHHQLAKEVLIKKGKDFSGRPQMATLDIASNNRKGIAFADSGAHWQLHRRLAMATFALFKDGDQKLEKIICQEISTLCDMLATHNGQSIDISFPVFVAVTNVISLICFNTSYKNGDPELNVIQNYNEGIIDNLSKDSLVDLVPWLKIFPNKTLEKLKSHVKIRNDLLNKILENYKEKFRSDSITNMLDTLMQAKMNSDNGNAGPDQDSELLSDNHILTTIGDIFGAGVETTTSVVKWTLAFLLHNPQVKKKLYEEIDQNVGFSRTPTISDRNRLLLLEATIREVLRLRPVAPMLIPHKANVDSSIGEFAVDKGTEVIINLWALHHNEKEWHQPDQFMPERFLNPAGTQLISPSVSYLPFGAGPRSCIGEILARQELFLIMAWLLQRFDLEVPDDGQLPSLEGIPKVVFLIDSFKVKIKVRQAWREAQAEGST

[2] = target: T1, Steroid 17-alpha-hydroxylase/17,20 lyase; experiment: Inhibition of CYP17 in human testicular microsomes using 17alpha-hydroxypregnenolone as substrate assessed as decrease in DHEA levels at 10 nM after 90 mins by ELISA relative to control; set-up: species or system Testis; details: 1.5 h
[3] = Half life in rat liver microsomes at 1 uM by LC-MS/MS analysis
[4] = Half life in human liver microsomes at 1 uM by LC-MS/MS analysis
[5] = target: T1, Steroid 17-alpha-hydroxylase/17,20 lyase; experiment: Inhibition of CYP17 in human H295R cells assessed as decrease in testosterone levels after 24 hrs by ELISA; assay type: cell-based
[6] = target: T2, CYP21 (steroid 21-hydroxylase) (Homo sapiens, UniProt P08686); experiment: Inhibition of human CYP21 transfected in HEK293 cells assessed as decrease in conversion of progesterone to 11-deoxycorticosterone preincubated for 5 hrs followed by progesterone addition measured after 20 hrs by ELISA; assay type: cell-based; set-up: concentration or dose not given beside the values; details: HEK293 cells transfected with human CYP21, probe progesterone
T2 sequence (P08686 whole entry): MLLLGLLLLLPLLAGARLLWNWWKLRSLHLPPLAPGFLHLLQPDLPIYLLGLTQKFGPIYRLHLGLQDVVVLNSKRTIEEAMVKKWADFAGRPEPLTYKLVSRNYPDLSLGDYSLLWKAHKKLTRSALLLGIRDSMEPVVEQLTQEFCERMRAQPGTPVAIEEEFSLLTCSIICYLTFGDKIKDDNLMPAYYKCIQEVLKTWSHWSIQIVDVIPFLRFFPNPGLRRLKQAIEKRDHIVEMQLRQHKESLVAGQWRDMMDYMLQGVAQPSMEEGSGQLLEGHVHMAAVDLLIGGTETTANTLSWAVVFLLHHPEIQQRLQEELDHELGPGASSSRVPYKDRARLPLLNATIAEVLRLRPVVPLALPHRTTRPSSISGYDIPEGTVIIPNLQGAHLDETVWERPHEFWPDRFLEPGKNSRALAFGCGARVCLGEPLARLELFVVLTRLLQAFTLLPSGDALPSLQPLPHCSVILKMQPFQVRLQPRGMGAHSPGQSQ

SMILES | IC50 [1] | inhibition at 0.01 µM [2] | half-life at 1 µM [3] | half-life at 1 µM [4] | IC50 [5] | inhibition at 20 h [6]
Cc1cncc(C2=CC[C@H]3[C@@H]4CCN5C(=O)CCCC[C@]5(C)[C@H]4CC[C@]23C)c1 | ≤ 11 nM | 50 to 80% | 1 to 10 min | 1 to 10 min | – | –
COc1cncc(C2=CC[C@H]3[C@@H]4CC[C@H]5COCCC[C@]5(C)[C@H]4CC[C@]23C)c1 | ≤ 11 nM | 50 to 80% | 1 to 10 min | 1 to 10 min | – | –
CCOc1cncc(C2=CC[C@H]3[C@@H]4CC[C@H]5COCCC[C@]5(C)[C@H]4CC[C@]23C)c1 | ≤ 11 nM | 50 to 80% | 1 to 10 min | 1 to 10 min | – | –
Cc1cncc(C2=CC[C@H]3[C@@H]4CC(O)C5CCCC[C@]5(C)[C@H]4CC[C@]23C)c1 (stereo partly specified) | ≤ 11 nM | – | 1 to 10 min | 1 to 10 min | – | –
CCc1cncc(C2=CC[C@H]3[C@@H]4CCN5C(=O)CCCC[C@]5(C)[C@H]4CC[C@]23C)c1 | ≤ 11 nM | ≥ 80% | 1 to 10 min | 1 to 10 min | – | –
C[C@]12CC[C@H]3[C@@H](CCC45CC4C(O)CC[C@]35C)[C@@H]1CC=C2c1cccnc1 (stereo partly specified) | ≤ 11 nM | – | – | – | ≤ 15 nM | ≥ 50%
C[C@]12CCNC(=O)C=C1CC[C@@H]1[C@@H]2CC[C@]2(C)C(n3ccnc3)CC[C@@H]12 (stereo partly specified) | ≤ 11 nM | ≥ 80% | 10 to 60 min | ≥ 50 min | – | –
C[C@]12CCOCC[C@@H]1CC[C@@H]1[C@@H]2CC[C@]2(C)C(c3cccnc3)=CC[C@@H]12 | ≤ 11 nM | ≥ 80% | 1 to 10 min | 1 to 10 min | – | –
COc1cncc(C2=CC[C@H]3[C@@H]4CC(=O)C5CCCC[C@]5(C)[C@H]4CC[C@]23C)c1 (stereo partly specified) | ≤ 11 nM | – | 1 to 10 min | 1 to 10 min | – | –
C[C@]12CCCCC1C(O)C[C@@H]1[C@@H]2CC[C@]2(C)C(n3ccnc3)=CC[C@@H]12 (stereo partly specified) | ≤ 11 nM | 50 to 80% | – | 1 to 50 min | – | –
Cc1cncc(C2=CC[C@H]3[C@@H]4CC[C@H]5COC(=O)CC[C@]5(C)[C@H]4CC[C@]23C)c1 | – | 1 to 50% | 1 to 10 min | 1 to 10 min | – | –
CCc1cncc(C2=CC[C@H]3[C@@H]4CCN5CCCCC[C@]5(C)[C@H]4CC[C@]23C)c1 | – | 1 to 50% | 1 to 10 min | 1 to 10 min | – | –
C[C@]12CCCCC[C@@H]1CC[C@@H]1[C@@H]2CC[C@]2(C)C(n3ccnc3)=CC[C@@H]12 | ≤ 11 nM | 50 to 80% | 10 to 60 min | 10 to 60 min | – | –
C[C@]12CC[C@H]3[C@@H](CC[C@H]4C[C@@H](O)CC[C@@]43C)C1=CC=C2n1ccnn1 | – | – | 1 to 10 min | 1 to 10 min | – | –
Cc1ccncc1C1=CC=C2[C@@H]3CC=C4C[C@@H](O)CC[C@]4(C)[C@H]3CC[C@]12C | – | – | – | 1 to 50 min | 15 to 100 nM | ≥ 50%
CCCOc1cncc(C2=CC[C@H]3[C@@H]4CCN5CCCCC[C@]5(C)[C@H]4CC[C@]23C)c1 | – | 50 to 80% | 10 to 60 min | 10 to 60 min | – | –
C[C@]12CC[C@H]3[C@@H](CC=C4C[C@@H](O)CC[C@@]43C)C1=CC=C2c1cncc(C(F)F)c1 | – | – | – | – | 15 to 100 nM | < 10%
C[C@]12CCC(F)CC1=CC[C@@H]1[C@@H]2CC[C@]2(C)C(c3cncc(F)c3)=CC[C@@H]12 (stereo partly specified) | ≤ 11 nM | – | – | ≥ 50 min | ≤ 15 nM | –
CN(C)CC(=O)O[C@H]1CC[C@@]2(C)C(=CC[C@H]3C4=CC=C(c5cccnc5)[C@@]4(C)CC[C@@H]32)C1 | – | – | – | – | 15 to 100 nM | ≥ 50%
